Columns and labels:
[1] = system: S. aureus (SA RN450); assay: Antibacterial MIC, gram positive; assay type: cell-based; settings: CLSI methodology, 35° C., 18-24 hours; for MIC: Staphylococcus aureus
[2] = system: E. coli (EC D1-209); assay: Antibacterial MIC, gram negative; assay type: cell-based; settings: CLSI methodology, 35° C., 18-24 hours; for MIC: Escherichia coli
[3] = system: SMN2 mRNA; assay: In vitro cell-free splicing assay for inclusion of exon 7; assay type: biochemical; settings: HeLa cell nuclear extract, 30° C., 3 hours
Protocol: The following example illustrates how tetracycline compound of the invention are active in an in vitro cell-free assay for the inclusion of exon 7 in […] mRNA. SMN1 and SMN2 pre-mRNA were prepared by in vitro transcription using T7 RNA polymerase of minigene templates that include exon 6, a truncated portion of intron 6, exon 7, intron 7 and a portion of exon 8 in the presence of ^32P-UTP. Labeled RNA was purified on a denaturing polyacrylamide gel followed by phenol extraction and ethanol precipitation of the RNA.
In vitro cell-free splicing of SMN1 and SMN2 transcripts was carried out in a 10 μl reaction volume at 30° C. for 3 hours. The reactions contained 10 fmol of labeled pre-mRNA, 30% (3 VI) HeLa cell nuclear extract (in 20 mM HEPES, pH 7.4, 20% (v/v) glycerol, 0.1M KC1, 0.2 mM EDTA), 1.3% (w/v) polyvinyl alcohol, 1.56 mM MgCl2, 32 mM HEPES, pH 7.4, 0.5 mM ATP, 20 mM creatine phosphate and either 2 μl of test compound (in 20 mM HEPES, pH 7.4, 0.1M KC1, 0.2 mM EDTA) or buffer alone. Following incubation, 200 μl of a solution containing 0.3M NaAc and 0.2% SDS was added to the reaction. Proteins were removed by extraction with an equal volume of phenol and RNA was precipitated with 2.5 volumes of ethanol. RNA was resuspended in formamide sample buffer and separated on a 9% urea-denaturing polyacrylamide gel. Quantitation of splicing was based on phosphorimage analysis (Fujix BAS2000 or Fujifilm FLA-5100). In this assay, percentage exon 7 inclusion averages 12% for the unmutated SMN1 mRNA and 4% for the SMN2 mRNA.
The in vitro activities for exon 7 splicing are expressed as the Emax (the maximum percentage exon 7 inclusion observed) and Cmax (the lowest compound concentration at which the maximum inclusion occurs in μM). For Emax, percentage inclusion values of less than 10% are indicated by “*”, values of 10-20% are indicated by “**”, and values greater than 20% are indicated by “***”. For Cmax data, concentrations of greater than 40 μM are indicated by “*”, concentrations between 40 and 10 μM are represented by “**” and concentrations of less than 10 μM are represented by “***”.

MIC [1]	MIC [2]	Compound	MIC Gram Positive (SA RN450) [1]	MIC Gram Negative (EC D1-209) [2]	Cmax (lowest compound concentration at which the maximum exon 7 inclusion occurs) [3]	Emax (maximum percentage exon 7 inclusion observed) [3]
		CC(C)N1CCN(CC(=O)c2ccc(O)c3c2CC2CC4C(N(C)C)C(O)=C(C(N)=O)C(=O)C4(O)C(O)=C2C3=O)CC1 (stereo not shown) [BX]	*** (Good antibacterial activity (e.g., less than about 4 μg/mL))	* (weak antibacterial activity (greater than about 8 μg/mL))	* (concentrations of greater than 40 μM)	* (percentage inclusion values of less than 10%)
		CN(C)C1C(O)=C(C(N)=O)C(=O)C2(O)C(O)=C3C(=O)c4c(O)ccc(C(=O)CNc5cccnc5)c4CC3CC12 (stereo not shown) [CB]	* (weak antibacterial activity (greater than about 8 μg/mL))	* (weak antibacterial activity (greater than about 8 μg/mL))	** (concentrations between 40 and 10 μM)	** (values of 10-20%)
		CN(C)C1C(O)=C(C(N)=O)C(=O)C2(O)C(O)=C3C(=O)c4c(O)ccc(C(=O)CNCc5ccco5)c4CC3CC12 (stereo not shown) [CC]	** (modest antibacterial activity (between about 4 and 8 μg/mL))	* (weak antibacterial activity (greater than about 8 μg/mL))	*** (concentrations of less than 10 μM)	** (values of 10-20%)
		CN(C)C1C(O)=C(C(N)=O)C(=O)C2(O)C(O)=C3C(=O)c4c(O)ccc(C(=O)CNCc5cccn5C)c4CC3CC12 (stereo not shown) [CE]	*** (Good antibacterial activity (e.g., less than about 4 μg/mL))	* (weak antibacterial activity (greater than about 8 μg/mL))	*** (concentrations of less than 10 μM)	** (values of 10-20%)
		CN(C)C1C(O)=C(C(N)=O)C(=O)C2(O)C(O)=C3C(=O)c4c(O)ccc(C(=O)Cc5cncn5C)c4CC3CC12 (stereo not shown) [CG]	*** (Good antibacterial activity (e.g., less than about 4 μg/mL))	* (weak antibacterial activity (greater than about 8 μg/mL))	* (concentrations of greater than 40 μM)	** (values of 10-20%)
		CC(=O)NCCC(=O)c1ccc(O)c2c1CC1CC3C(N(C)C)C(O)=C(C(N)=O)C(=O)C3(O)C(O)=C1C2=O (stereo not shown) [CI]	*** (Good antibacterial activity (e.g., less than about 4 μg/mL))	* (weak antibacterial activity (greater than about 8 μg/mL))	* (concentrations of greater than 40 μM)	** (values of 10-20%)
		CN(C)C1C(O)=C(C(N)=O)C(=O)C2(O)C(O)=C3C(=O)c4c(O)ccc(-c5cccc(C(=O)NCCO)c5)c4CC3CC12 (stereo not shown) [CK]	*** (Good antibacterial activity (e.g., less than about 4 μg/mL))	* (weak antibacterial activity (greater than about 8 μg/mL))	** (concentrations between 40 and 10 μM)	** (values of 10-20%)
		CN(C)CCCCNC(=O)c1cccc(-c2ccc(O)c3c2CC2CC4C(N(C)C)C(O)=C(C(N)=O)C(=O)C4(O)C(O)=C2C3=O)c1 (stereo not shown) [CL]	** (modest antibacterial activity (between about 4 and 8 μg/mL))	* (weak antibacterial activity (greater than about 8 μg/mL))	** (concentrations between 40 and 10 μM)	*** (values greater than 20%)
		CN(C)C1C(O)=C(C(N)=O)C(=O)C2(O)C(O)=C3C(=O)c4c(O)ccc(-c5cccc(CCCO)c5)c4CC3CC12 (stereo not shown) [CM]	*** (Good antibacterial activity (e.g., less than about 4 μg/mL))	* (weak antibacterial activity (greater than about 8 μg/mL))	*** (concentrations of less than 10 μM)	** (values of 10-20%)
		COC(=O)C1CCN(Cc2ccc(O)c3c2CC2CC4C(N(C)C)C(O)=C(C(N)=O)C(=O)C4(O)C(O)=C2C3=O)CC1 (stereo not shown) [Compound AK]	*** (Good antibacterial activity (e.g., less than about 4 μg/mL))	** (modest antibacterial activity (between about 4 and 8 μg/mL))	** (concentrations between 40 and 10 μM)	* (percentage inclusion values of less than 10%)
		CN(C)CCNC(=O)c1cccc(-c2ccc(O)c3c2CC2CC4C(N(C)C)C(O)=C(C(N)=O)C(=O)C4(O)C(O)=C2C3=O)c1 (stereo not shown) [Compound A]	*** (Good antibacterial activity (e.g., less than about 4 μg/mL))	* (weak antibacterial activity (greater than about 8 μg/mL))	** (concentrations between 40 and 10 μM)	** (values of 10-20%)
> 8 µg/mL	> 8 µg/mL	CN(C)CCCCNCc1ccc(O)c2c1C[C@H]1C[C@H]3[C@H](N(C)C)C(O)=C(C(N)=O)C(=O)[C@@]3(O)C(O)=C1C2=O [Compound CN, (4S,4aS,5aR,12aS)-4-Dimethylamino-7-[(4-dimethylamino-butylamino)-methyl]-3,10,12,12a-tetrahydroxy-1,11-dioxo-1,4,4a,5,5a,6,11,12a-octahydro-naphthacene-2-carboxylic Acid Amide]			*** (concentrations of less than 10 μM)	** (values of 10-20%)
< 4 µg/mL	> 8 µg/mL	CCN(CC)CCNC(=O)c1cccc(-c2ccc(O)c3c2C[C@H]2C[C@H]4[C@H](N(C)C)C(O)=C(C(N)=O)C(=O)[C@@]4(O)C(O)=C2C3=O)c1 [Compound E, (4S,4aS,5aR,12aS)-7-[3-(2-Diethylamino-ethylcarbamoyl)-phenyl]-4-dimethylamino-3,10,12,12a-tetrahydroxy-1,11-dioxo-1,4,4a,5,5a,6,11,12a-octahydro-naphthacene-2-carboxylic Acid Amide]			** (concentrations between 40 and 10 μM)	*** (values greater than 20%)
< 4 µg/mL	> 8 µg/mL	CCOC(=O)CCNC(=O)c1cccc(-c2ccc(O)c3c2C[C@H]2C[C@H]4[C@H](N(C)C)C(O)=C(C(N)=O)C(=O)[C@@]4(O)C(O)=C2C3=O)c1 [Compound I, 3-[3-((6aS,10S,10aS,11aR)-8-Carbamoyl-10-dimethylamino-4,6,6a,9-tetrahydroxy-5,7-dioxo-5,6a,7,10,10a,11,11a,12-octahydro-naphthacen-1-yl)-benzoylamino]-propionic Acid Ethyl Ester]			* (concentrations of greater than 40 μM)	*** (values greater than 20%)
< 4 µg/mL	> 8 µg/mL	CN(C)CC(=O)Nc1cccc(-c2ccc(O)c3c2C[C@H]2C[C@H]4[C@H](N(C)C)C(O)=C(C(N)=O)C(=O)[C@@]4(O)C(O)=C2C3=O)c1 [Compound K, (4S,4aS,5aR,12aS)-4-Dimethylamino-7-[3-(2-dimethylamino-acetylamino)-phenyl]-3,10,12,12a-tetrahydroxy-1,11-dioxo-1,4,4a,5,5a,6,11,12a-octahydro-naphthacene-2-carboxylic Acid Amide]			* (concentrations of greater than 40 μM)	* (percentage inclusion values of less than 10%)
		CN(C)CCCC(=O)Nc1cccc(-c2ccc(O)c3c2CC2CC4C(N(C)C)C(O)=C(C(N)=O)C(=O)C4(O)C(O)=C2C3=O)c1 (stereo not shown) [Compound Q]	*** (Good antibacterial activity (e.g., less than about 4 μg/mL))	* (weak antibacterial activity (greater than about 8 μg/mL))	*** (concentrations of less than 10 μM)	** (values of 10-20%)
